Values quoted from earlier work in patent publication US6326360A, “Bubbling enteric coated preparations” (Grelan Pharmaceuticals Co., Ltd., priority 1998, dated 2001).

Details: oral tablets

- transfer of unchanged glycyrrhizin into blood (in words): hardly observed
SMILES: CC1(C)[C@@H](O[C@H]2O[C@H](C(=O)O)[C@@H](O)[C@H](O)[C@H]2O[C@@H]2O[C@H](C(=O)O)[C@@H](O)[C@H](O)[C@H]2O)CC[C@]2(C)[C@H]3C(=O)C=C4[C@@H]5C[C@@](C)(C(=O)O)CC[C@]5(C)CC[C@@]4(C)[C@]3(C)CC[C@@H]12 [glycyrrhizin]
- decomposition of glycyrrhizin in the stomach (in words): quickly decomposed into glycyrrhetinic acid in the stomach
